According to patent US8003773B2, “Polynucleotides encoding MHC class I-restricted hTERT epitopes, analogues thereof or polyepitopes” (Institut Pasteur, priority 2005, dated 2011):

Columns and labels:
[1] = tested on: human tumour cell lines of different origins; assay: Capacity of hTERT-specific CTLs from donors to lyse human tumour cell lines of different origins (summary); assay type: cell-based; conditions: CTL lines generated in vitro from healthy donors
Description: (§1) Cytotoxicity assays were performed by using standard 4-5 h ^51Cr release assay as previously described (Firat et al. J Gene Med 2002; 4:38-45). Specific lysis in % was calculated by subtracting non-specific lysis observed with the control peptide. Mice were considered as responsers when specific lysis ≧10% was observed.
(§2) Human CTL from donors were obtained after in vitro re-activated PBMC for 4 weeks with hTERT peptide HLA-B0702 restricted as described previously (Hernandez et al. Proc Natl Acad Sci U.S.A. 2002; 99:12275-80). Briefly, Ficoll-purified human PBMCS were thawed and incubated (4×10^6/well) in 24-well plates in RPMI 1640, 1 mM sodium pyruvate, 100 IU/ml penicillin, 100 μg/ml streptomycin, 10 mM HEPES, 5×10^-5 M 2-mercaptoethanol supplemented with heat inactivated 10% human serum (Institut Jacques Boy, Reims, France). They were stimulated with each hTERT peptide (10 μg/ml) and recombinant human IL-7 (20 ng/ml; R&D Systems) was added.
On day 7, lymphocytes were re-activated with peptide-pulsed γ-irradiated autologous PBMCs (50 Gy). The next day, 20 IU/ml human IL-2 (Roche, Mannheim, Germany) was added to the culture. CTL lines were re-activated weekly during four cycles. For some donors, CD8^+ T cells were purified after three round cycle, using CD8 microbeads (Miltenyi Biotec, Bergisch Gladbach, Germany.) according to manufacturer's recommendations and activated once before functional test. Cytolytic assays were performed 6 days after the last re-activation against various ^51Cr-labeled targets: T2-B7 pulsed with tested hTERT peptides or irrelevant peptide, or tumor cell lines.

[2] = tested on: hTERT peptide-pulsed target cells; assay: Lv-hTERT immunization of HLA-B7 Tg mice, CTL response in chromium release assay; assay type: in vivo; conditions: Flap+ Lv-hTRT immunization, by restimulating peptide
Description: (§3) Immunization with TRIPLv-hTERT was performed as a single subcutaneously (at the base of the tail) injection of 1500 ng of TripLv-hTERT suspension or control vector.
(§4) 12 days later, hTERT peptide-specific T among splenocytes were detected by an ELISPOT assay (see below). Cytotoxicity assays were performed on the same immune splenocyte populations after in vitro stimulation with peptide-pulsed as described above.
Mice were considered as responsers when specific lysis ≧10% was observed.

[3] = tested on: peptide loaded RMA-B7 target cells; assay: Peptide immunization of HLA-*B0702 transgenic mice for CTL induction, 51Cr release assay; assay type: in vivo; conditions: for R/T: responder (specific lysis ≧ 10%) versus tested mice / mice tested generating specific CTL: peptide immunization; for R/T: responder (specific lysis ≧ 10%) versus tested mice: six mice per peptide; for CTL response after peptide immunization: HLA-*B0702 transgenic mice
Description: Female HLA-*B0702 transgenic mice at 8-10 weeks of age were injected subcutaneously (s.c.) at the base of the tail with 50 μg of individual HLA-B0702 restricted hTERT peptides supplemented with 140 μg of helper peptide co-emulsified in incomplete Freund's adjuvant (Difco, Detroit, Mich.). Ten days later, spleen cells of individual mouse were re-activated in vitro with relevant peptide in six wells plate. Effector CTL cells were tested in a standard 4-5 h ^51Cr-release assay, using relevant or negative control peptide-pulsed, HLA-*B0702 transfected RMA cells (RMA-B7). Mice were considered as responders, when specific lysis ≧10% was observed.
as §1

T2-B7 cells = assay: Induction of primary CTL responses from healthy donors' PBMC by hTERT peptides; assay type: cell-based, human; conditions: HLA-B0702 healthy donors, in vitro immunization; FIG. 3
Description: T-lymphocyte cells from HLA-*B0702^+ healthy donors were activated with each of the six hTERT peptide-pulsed autologous PBMC as detailed in materials and Method. After four rounds of weekly stimulation, effector cells, pulsed with relevant (▪) or control (□) peptides, were essayed for lytic activity against ^51Cr-labeled T2-B7 cells. Percentage of lysis at a 20/1 effector-target ratio is shown. Results from 8 out of 10 donors are presented (d1 to d8).
as §2
On day 7, lymphocytes were re-activated with peptide-pulsed γ-irradiated autologous PBMCs (50 Gy). The next day, 20 IU/ml human IL-2 (Roche, Mannheim, Germany) was added to the culture. CTL lines were re-activated weekly during four cycles. […]

[4] = tested on: RMA-B7 targets loaded with relevant peptides; assay: DNA immunization (hTERT) in HLA-*B0702 transgenic mice, peptide-specific CTL; assay type: in vivo; conditions: immunised with cDNA encoding hTERT; FIG. 2
Description: HLA-B7 Tg mice and one naïve mice (N) were immunized with 100 μg DNA encoding Htert. On day 14, spleen cells from each mouse were separately in vitro stimulated with different hTERT-derived peptides. Effector cells were essayed 6 days later against RMA-B7 targets loaded with relevant (▪) or control (□) peptides as described in the material and methods. Percentage of lysis at a 60/1 ratio are shown (results from two independent experiments).
The LvCMV-hTERT plasmid vector encoding the hTERT gene under the control of CMV promotor was purified on plasmid Giga kit columns under endotoxin-free conditions (Qiagen). Anesthetized HLA-*B0702 Transgenic mice were injected with said plasmid (50 μg each side) into regenerating tibialis anterior muscles. 14 days after, spleen cells of individual mouse were re-activated in vitro with peptide-pulsed (10 μg/ml), syngenic γ-irradiated (50 Gy) LPS-lymphoblast in complete medium, supplemented with 10% supernatant from Con A-activated rat spleens cells. Cytotoxicity assays were performed 6 days as described.
as §1

[5] = tested on: hTERT peptide-pulsed target cells; assay: Lv-hTERT immunization of HHD mice (HLA-A2.1), CTL response in chromium release assay; assay type: in vivo
Description: as §3, §4, §1

Substance | tumor cell recognition by CTL lines specific for the peptide [1] | R/T [2] | R/T: responder (specific lysis ≧ 10%) versus tested mice [3] | CTL response after peptide immunization [3] | mice tested generating specific CTL [3] | donors with peptide-specific CTL responses (T2-B7 cells) | mice with hTERT peptide-specific CTLs induced [4] | CTL responses specific for HLA-A2.1 restricted epitopes ([5]; HHD mice immunized with Lv-hTERT) | R/T ([5]; HHD mice, Flap+ Lv-hTRT immunization, by restimulating peptide)
RPSLTGARRL [p351] | recognize the majority of tumor cell lines tested | 5/8 | 4/6 |  |  |  |  |  | 
MPRAPRCRA [p1] | only recognize the T1-B7 targets | 4/8 | 4/6 |  |  |  |  |  | 
RPAEEATSL [p277] | recognize renal cancer (293 UT) but neither melanoma nor lymphoid tumor cells | 5/8 | 3/6 | moderate specific CTL | 50 % of mice tested |  |  |  | 
RPSFLLSSL [p342] | recognize only melanoma cells (LB 34 and KU 268 target) | 4/8 | 3/6 | moderate specific CTL | 50 % of mice tested | 20 % of donors | about 15 % of mice |  | 
APRCRAVRSL [p4] | do not lyse all the type of tested tumors | 6/8 | 6/6 | strong CTL response in all mice tested |  |  |  |  | 
p540: HLA-A2.1-restricted hTERT-derived peptide, epitope previously classified as dominant (ILAKFLHWL; UniProt O14746 540-548, looked up, fragment) |  |  |  |  |  |  |  | potent CTL responses | 2/6
APSFRQVSCL [p68] | only recognize the T1-B7 targets | 4/8 | 6/6 | strong CTL response in all mice tested |  |  |  |  | 
